Like-named read-outs stand apart in the source and are kept apart here.
Molecular target: T1, hNPY1R (Homo sapiens, UniProt P25929)
T1 construct: SK-N-MC cells endogenously expressing the NPY1R receptor; endogenous in cells; host or cells: SK-N-MC cells (crude membrane fractions)
T1 sequence (P25929 1-384): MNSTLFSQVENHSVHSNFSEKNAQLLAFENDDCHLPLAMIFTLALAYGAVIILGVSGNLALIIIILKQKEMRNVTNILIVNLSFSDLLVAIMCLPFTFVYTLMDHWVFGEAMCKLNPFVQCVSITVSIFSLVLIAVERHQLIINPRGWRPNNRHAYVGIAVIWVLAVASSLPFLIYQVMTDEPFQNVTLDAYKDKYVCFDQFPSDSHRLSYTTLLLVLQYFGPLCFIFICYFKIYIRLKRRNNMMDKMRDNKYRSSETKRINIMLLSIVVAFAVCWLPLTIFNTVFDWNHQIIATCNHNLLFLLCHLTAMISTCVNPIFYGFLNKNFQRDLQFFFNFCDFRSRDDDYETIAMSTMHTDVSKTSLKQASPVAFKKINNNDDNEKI
Assay: NPY1R binding assay: SK-N-MC membranes, [125I]-Peptide YY (human) competition
Conditions: SK-N-MC membranes

[1] = data obtained after 120 minutes at rt, [125I]-Peptide YY, read-out: hNPY.R binding Ki* ††
[2] = data obtained after 60 minutes at 37° C., [125I]-Peptide YY 0.05 nM, read-out: hNPY1R binding Ki* †

## CCC(=O)NCCNC(=O)/N=C(/N)NCCC[C@@H](NC(=O)C(c1ccccc1)c1cccc(OCCCCNC(=O)[C@H](N)CCCCNC(=O)c2ccc(CNC(=O)CN3CCN(CC(=O)O)CCN(CC(=O)O)CCN(CC(=O)O)CC3)cc2)c1)C(=O)NCc1ccc(O)cc1 (single isomer, unassigned) [Compound 142A]
[1]
  Ki: < 10 nM

## N=C(N)NCCC[C@@H](NC(=O)C(c1ccccc1)c1cccc(OCCOCCOCCOCCOCCNC(=O)CN2CCN(CC(=O)O)CCN(CC(=O)O)CCN(CC(=O)O)CC2)c1)C(=O)NCc1ccc(CNC(N)=O)cc1 (stereo partly drawn) [Compound 113A, 2,2′,2″-(10-(17-(3-(2-(((R)-5-guanidino-1-oxo-1-((4-(ureidomethyl)benzyl)amino)pentan-2-yl)amino)-2-oxo-1-phenylethyl)phenoxy)-2-oxo-6,9,12,15-tetraoxa-3-azaheptadecyl)-1,4,7,10-tetraazacyclododecane-1,4,7-triyl)triacetic acid—2,2,2-trifluoroacetic acid (1/1)]
[2]
  Ki: > 100 nM

## CCC(=O)NCCNC(=O)/N=C(/N)NCCC[C@@H](NC(=O)C(c1ccccc1)c1ccc(NCCCNC(=O)[C@H](N)CCCNC(=O)[C@@H](Cc2ccc(-c3ccccc3)cc2)NC(=O)CN2CCN(CC(=O)O)CCN(CC(=O)O)CCN(CC(=O)O)CC2)cc1)C(=O)NCc1ccc(O)cc1 (stereo partly drawn) [Compound 134B-In, indium (III) 2,2′,2″-(10-(2-(((R)-3-([1,1′-biphenyl]-4-yl)-1-(((R)-4-amino-5-((3-((4-((4R,Z)-9-amino-4-((4-hydroxybenzyl)carbamoyl)-2,11,16-trioxo-1-phenyl-3,8,10,12,15-pentaazaoctadec-9-en-1-yl)phenyl)amino)propyl)amino)-5-oxopentyl)amino)-1-oxopropan-2-yl)amino)-2-oxoethyl)-1,4,7,10-tetraazacyclododecane-1,4,7-triyl)triacetic acid]
[1]
  Ki: < 10 nM

## CCC(=O)NCCNC(=O)/N=C(/N)NCCC[C@@H](NC(=O)C(c1ccccc1)c1ccc(NCCCNC(=O)[C@H](N)CCCCNC(=O)CN2CCN(CC(=O)O)CCN(CC(=O)O)CCN(CC(=O)O)CC2)cc1)C(=O)NCc1ccc(O)cc1 (single isomer, unassigned) [Compound 132A]
[1]
  Ki: < 10 nM

## CCC(=O)NCCNC(=O)/N=C(/N)NCCC[C@@H](NC(=O)C(c1ccccc1)c1cccc(NCCCNC(=O)CCOCCNC(=O)CN2CCN(CC(=O)O)CCN(CC(=O)O)CCN(CC(=O)O)CC2)c1)C(=O)NCc1ccc(O)cc1 (single isomer, unassigned) [Compound 121A]
[1]
  Ki: < 10 nM

## CCC(=O)NCCNC(=O)/N=C(/N)NCCC[C@@H](NC(=O)C(c1ccccc1)c1ccc(NC(=O)CCOCCOCCOCCOCCNC(=O)CN2CCN(CC(=O)O)CCN(CC(=O)O)CCN(CC(=O)O)CC2)cc1)C(=O)NCc1ccc(O)cc1 (single isomer, unassigned) [Compound 102A]
[2]
  Ki: 10 to 100 nM

## CCC(=O)NCCNC(=O)/N=C(/N)NCCC[C@@H](NC(=O)C(c1ccccc1)c1cccc(OCCCCNC(=O)CCNC(=O)CN2CCN(CC(=O)O)CCN(CC(=O)O)CCN(CC(=O)O)CC2)c1)C(=O)NCc1c(F)cc(O)cc1F (single isomer, unassigned) [Compound 162B]
[1]
  Ki: < 10 nM

## CCC(=O)NCCNC(=O)/N=C(/N)NCCC[C@@H](NC(=O)C(c1ccccc1)c1ccc(NCCCNC(=O)[C@H](N)CCCNC(=O)CN2CCC(NC(=O)CN3CCN(CC(=O)O)CCN(CC(=O)O)CCN(CC(=O)O)CC3)CC2)cc1)C(=O)NCc1ccc(O)cc1 (single isomer, unassigned) [Compound 146B]
[1]
  Ki: < 10 nM
